The values below come from EP2992880A1, “Use of heme oxygenase 1 inducers and cannabinoid 2 receptor or delta-opioid receptor agonists in inflammatory pain” (Fundació Institut de Recerca de l'Hospital de la Santa Creu …, priority 2014, dated 2016).

One assay deals with CFA-injected mice. Description: plantar test (thermal hyperalgesia) in CFA-induced chronic inflammatory pain. Type of assay: in vivo, male C57BL/6 mice. The method, then:
The experiments were performed in male C57BL/6 mice acquired from Harlan Laboratories (Barcelona, Spain). All mice weighing 21 to 25 g were housed under 12-h/12-h light/ dark conditions in a room with controlled temperature (22° C) and humidity (66%). Animals had free access to food and water and were used after a minimum of 7 days acclimatization to the housing conditions. All experiments were performed according with the Guide for the Care and Use of Laboratory Animals as adopted and promulgated by the U.S. National Institutes of Health and approved by the local Committee of Animal Use and Care of the Autonomous University of Barcelona. All efforts were made to minimize animal suffering and to reduce the number of animals used.
Chronic inflammatory pain was induced by the subplantar injection of 30 µl of CFA (Sigma) into the right hind paw under brief anesthetic conditions with isoflurane according to previous works (Leánez et al., Eur J Pharmacol, 2009, 602:41-49; Hervera et al., Naunyn Schmiedebergs Arch Pharmacol, 2009, 380:345-352). All experiments were performed at 10 days after CFA injection. At this time point, all of these animals developed a local inflammatory reaction, allodynia to mechanical stimuli and hyperalgesia to noxious thermal stimuli, as previously reported (Negrete et al., PLoS One, 2011, 6:e26688). The development of mechanical allodynia and thermal hyperalgesia was evaluated by using the von Frey filaments and plantar tests, respectively. All animals were tested in each paradigm before and at 10 days after CFA-injection.
Thermal hyperalgesia was assessed as previously reported by Hargreaves et al. (Pain, 1988, 32:77-88). Paw withdrawal latency in response to radiant heat was measured using the plantar test apparatus (Ugo Basile, Varese, Italy). Briefly, mice were placed in methacrylate cylinders (20 cm high x 9 cm diameter) positioned on a glass surface. The heat source was positioned under the plantar surface of the hind paw and activated with a light beam intensity, chosen in preliminary studies to give baseline latencies from 8 to 10 s in control mice. A cut-off time of 12 s was used to prevent tissue damage in absence of response. The mean paw withdrawal latencies from the ipsilateral and contralateral hind paws were determined from the average of three separate trials, taken at 5 min intervals to prevent thermal sensitization and behavioral disturbances. Animals were habituated to the environment for 1 h before the experiment to become quiet and to allow testing. […]
In another set of experiments, we evaluated the mechanical antiallodynic and thermal antihyperalgesic effects produced by the subplantar administration of 290 µg of SnPP alone or combined with the subplantar administration of a high dose of DPDPE (150 µg) or JWH-015 (300 µg) in the contralateral and ipsilateral paw of CFA-injected animals (n = 6 animals per group).
The reversibility of the antinociceptive effects produced by the subplantar administration of DPDPE (150 µg) or JWH-015 (300 µg), as doses that produce the maximal antiallodynic and antihyperalgesic effects after peripheral inflammation, by their subplantar coadministration with specific (naltrindole; 50 µg; AM630; 60 µg) and an unspecific peripheral opioid antagonist (naloxone methiodide, NX-ME; 50 µg) or a cannabinoid 1 receptor (CB1R) antagonist (AM251; 150 µg) (Hervera et al., J Pharmacol Exp Ther, 2010, 334: 887-896; Hervera et al., Mol Pain, 2011, 7:25) was also evaluated (n = 6 animals per group). The doses of all tested opioid and cannabinoid receptor antagonists were selected according to our previous data in animals with chronic pain (Hervera et al., Naunyn Schmiedebergs Arch Pharmacol, 2009, 380:345-352; Hervera et al., Psychopharmacology, 2013, 228:463-477; Negrete et al., PLoS One, 2011, 6:e26688).
CoPP and SnPP were dissolved in DMSO (1 % solution in saline). JWH-015, AM630, AM251 were dissolved in DMSO (50 % solution in saline). […]

For assay [1] the following is noted: visceral pain; cited from earlier work.
In a further assay the test system is CB2R. The assay is described as follows: Western blot of CB2R protein in dorsal root ganglia of CFA-injected mice. Type of assay: in vivo. The following applies: CoPP treatment of CFA-injected mice (Fig. 8). The method, then:
Animals were sacrificed at 0 days (naive) and after CFA-injection by cervical dislocation. Tissues from the ipsilateral section of the dorsal root ganglia (L3 to L5) were removed immediately after killing, frozen in liquid nitrogen, and stored at -80°C until assay. Samples from five animals were pooled into one experimental sample to obtain enough protein levels for performing Western blot analysis. The HO-1, DOR and CB2R protein levels were analyzed by Western blot. […]
The proteins were electrophoretically transferred onto PVDF membrane for 120 min, blocked with PBS + 5% nonfat dry milk, and subsequently incubated overnight at 4°C with polyclonal rabbit anti-HO-1 (1:300, Stressgen, Ann Arbor, MI), anti-DOR (1:2500, Chemicon-Millipore) or anti-CB2R (1:500, Abcam, Cambridge, United Kingdom). The proteins were detected by a horseradish peroxidase-conjugated anti-rabbit secondary antibody (GE Healthcare, Little Chalfont, Buckinghamshire, United Kingdom) and visualized with chemiluminescence reagents (ECL kit; GE Healthcare) and by exposure onto hyperfilm (GE Healthcare). The intensity of blots was quantified by densitometry. […]
Finally, in another set of experiments we evaluated the effects of CoPP on the expression of HO-1, DOR and CB2R in the ipsilateral site of the dorsal root ganglia from CFA-injected mice, by using Western blot assay. […]
(Immunoblotting shows a protein as a band on a membrane.)

For assay [2] the following is noted: neuropathic pain; cited from earlier work.

For the substance “cobalt (III) protoporphyrin IX chloride [CoPP]”, the “effect of CoPP treatment on the thermal antihyperalgesic effects of DPDPE” value in the assay with CFA-injected mice (CoPP 10 mg/kg intraperitoneal, DPDPE 50 µg subplantar, P < 0.001 (Fig. 3B)) is recorded as “significantly increased”. Also, the “effect of CoPP treatment on the antihyperalgesic effects of JWH-015” value in the assay with CFA-injected mice (CoPP 10 mg/kg intraperitoneal, JWH-015 30 µg subplantar, P < 0.001 (Fig. 4B)) is recorded as “significantly enhanced”. Also, in the assay on CFA-injected mice (CoPP alone 10 mg/kg intraperitoneal, ipsilateral paw, P < 0.001 versus vehicle (Fig. 3B)), the “thermal hyperalgesia induced by peripheral inflammation” value is reported as “significantly attenuated”. Also, in the assay on CFA-injected mice (Table 5, ipsilateral paw, CoPP 10 mg/kg intraperitoneal, DPDPE 50 µg subplantar, vehicle 4.0), the “Thermal hyperalgesia, Experimental results (%) (maximal possible effect)” value came out at 26.8%. The “Thermal hyperalgesia, Experimental results (%) (maximal possible effect)” value with CFA-injected mice (Table 6, ipsilateral paw, CoPP 10 mg/kg intraperitoneal, JWH-015 30 µg subplantar, vehicle 4.9) is 22.3%. For the same substance, the “effect of CoPP on the antinociceptive effect of morphine treatment” value in assay [1] is listed as “does not alter”. In addition, in the assay on CB2R, the “peripheral expression of CB2R in the dorsal root ganglia from CFA-injected mice” value is given as “remains unaltered”. Moreover, in assay [2], the “effect of CoPP on the antinociceptive effect of DPDPE” value was “decreased”, the “effect of CoPP on the antinociceptive effect of JWH-015” value is listed as “decreased” and the “effect of CoPP on the antinociceptive effect of morphine” value was “increases”.
